Reference: ChEMBL document CHEMBL1201862, “PubChem BioAssay data set” (2004)
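Growth conditions: 96-well plates. Treatment: test compound, 48 hours, 5 concentrations. Analysis: linear interpolation between bracketing concentrations; unreached endpoints set to highest concentration. GI50 marks 50% less growth.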 Calls of active or inactive are those of the source. Cut-off read from the data, not from the text of the source: active = GI50 up to about 1.1 µM and inactive = higher.

Assays:
Experiment in all cases: DTP human tumour cell line panel, 48 h
786-0 = system: 786-0
CCRF-CEM = system: CCRF-CEM
DLD-1 = system: DLD-1
DMS-114 = system: DMS-114
EKVX = system: EKVX
HL-60 = system: HL-60
HOP-92 = system: HOP-92
IGROV-1 = system: IGROV-1
KM-20L2 = system: KM-20L2
M14 = system: M14
MOLT-4 = system: MOLT-4
NCI-H460 = system: NCI-H460
RPMI-8226 = system: RPMI-8226
SF-268 = system: SF-268
SF-295 = system: SF-295
SN12C = system: SN12C
UACC-257 = system: UACC-257
UACC-62 = system: UACC-62
LOX IMVI = system: LOX IMVI

| Compound | GI50 (786-0) | GI50 (CCRF-CEM) | GI50 (DLD-1) | GI50 (DMS-114) | GI50 (EKVX) | GI50 (HL-60) | GI50 (HOP-92) | GI50 (IGROV-1) | GI50 (KM-20L2) | GI50 (M14) | GI50 (MOLT-4) | GI50 (NCI-H460) | GI50 (RPMI-8226) | GI50 (SF-268) | GI50 (SF-295) | GI50 (SN12C) | GI50 (UACC-257) | GI50 (UACC-62) | GI50 (LOX IMVI) |
| --- | --- | --- | --- | --- | --- | --- | --- | --- | --- | --- | --- | --- | --- | --- | --- | --- | --- | --- | --- |
| Cc1cc(Cl)ccc1N1C(=O)C(=O)C(c2nc3ccccc3s2)C(=O)C1=O | > 100 µM (inactive) | > 100 µM (inactive) | > 100 µM (inactive) | > 100 µM (inactive) | > 100 µM (inactive) | > 100 µM (inactive) | > 100 µM (inactive) | > 100 µM (inactive) | > 100 µM (inactive) | > 100 µM (inactive) | > 100 µM (inactive) | > 100 µM (inactive) | > 100 µM (inactive) | > 100 µM (inactive) | > 100 µM (inactive) | > 100 µM (inactive) | > 100 µM (inactive) | > 100 µM (inactive) | – |
| COCCOCOc1ccc(OCOCCOC)c2c1C(=O)c1ccccc1C2=O | 92.9 µM (inactive) | 27 µM (inactive) | 26.3 µM (inactive) | 3.19 µM (inactive) | 38.3 µM (inactive) | 18.4 µM (inactive) | > 79.6 µM (inactive) | 99.1 µM (inactive) | 32 µM (inactive) | > 100 µM (inactive) | 21.6 µM (inactive) | 24.3 µM (inactive) | – | 31.3 µM (inactive) | > 100 µM (inactive) | 51.4 µM (inactive) | 42.8 µM (inactive) | 47.6 µM (inactive) | 27.9 µM (inactive) |
| CC[N+](C)(C)c1ccc(C(=C2C=CC(=[N+](C)C)C=C2)c2ccc(N(C)C)cc2)cc1 | 5.94 µM (inactive) | 7.05 µM (inactive) | 6.07 µM (inactive) | 11 µM (inactive) | 4.97 µM (inactive) | 2.4 µM (inactive) | 19.5 µM (inactive) | 12 µM (inactive) | – | 11 µM (inactive) | 12.4 µM (inactive) | 5.74 µM (inactive) | 2.19 µM (inactive) | 10.8 µM (inactive) | 8.67 µM (inactive) | 4.39 µM (inactive) | 13.2 µM (inactive) | 6.55 µM (inactive) | 5.2 µM (inactive) |
| NC(=O)/C=C/C(=O)O | > 5000 µM (inactive) | > 5000 µM (inactive) | > 5000 µM (inactive) | > 5000 µM (inactive) | – | > 5000 µM (inactive) | > 5000 µM (inactive) | > 5000 µM (inactive) | – | > 5000 µM (inactive) | > 5000 µM (inactive) | > 5000 µM (inactive) | > 5000 µM (inactive) | > 5000 µM (inactive) | > 5000 µM (inactive) | > 5000 µM (inactive) | > 5000 µM (inactive) | > 5000 µM (inactive) | > 5000 µM (inactive) |
| CC(=O)OCCOCNC(=S)N/N=C(\C)c1cccs1 | > 100 µM (inactive) | 61.8 µM (inactive) | > 100 µM (inactive) | > 100 µM (inactive) | > 100 µM (inactive) | > 100 µM (inactive) | – | > 100 µM (inactive) | > 100 µM (inactive) | > 100 µM (inactive) | > 100 µM (inactive) | > 100 µM (inactive) | > 100 µM (inactive) | > 100 µM (inactive) | > 100 µM (inactive) | > 100 µM (inactive) | > 100 µM (inactive) | > 100 µM (inactive) | > 100 µM (inactive) |
| CC(=O)Nc1ccc(/C=C(\NC(=O)c2ccccc2)c2nc3ccc4c(c3[nH]2)C(=O)c2ccccc2C4=O)cc1 | 35.6 µM (inactive) | 0.904 µM (active) | 13.8 µM (inactive) | 17.9 µM (inactive) | 24.3 µM (inactive) | – | 22.9 µM (inactive) | 7.13 µM (inactive) | 46.5 µM (inactive) | 43.1 µM (inactive) | 2.88 µM (inactive) | – | 4.46 µM (inactive) | 5.94 µM (inactive) | 22.6 µM (inactive) | 25.4 µM (inactive) | > 100 µM (inactive) | 17.9 µM (inactive) | 15.1 µM (inactive) |
| CC(=O)n1c2c(c(=O)n1-c1ccccc1)[S+]([O-])CCC2 (centres undefined) | 40.7 µM (inactive) | 7.5 µM (inactive) | 48 µM (inactive) | 35.9 µM (inactive) | > 95.7 µM (inactive) | 24.4 µM (inactive) | – | 99.1 µM (inactive) | > 71.6 µM (inactive) | 49.7 µM (inactive) | 1.25 µM (inactive) | 16.7 µM (inactive) | 6.08 µM (inactive) | > 100 µM (inactive) | – | > 91.4 µM (inactive) | 46.7 µM (inactive) | 20.3 µM (inactive) | > 58.3 µM (inactive) |
| COc1cccc(/C=N/NC(N)=O)c1O | > 100 µM (inactive) | > 100 µM (inactive) | – | – | > 100 µM (inactive) | – | > 100 µM (inactive) | > 100 µM (inactive) | > 100 µM (inactive) | > 100 µM (inactive) | > 100 µM (inactive) | > 100 µM (inactive) | > 100 µM (inactive) | > 100 µM (inactive) | > 100 µM (inactive) | > 100 µM (inactive) | > 100 µM (inactive) | > 100 µM (inactive) | > 100 µM (inactive) |
